Each molecule was assayed against T1, human CB1 receptor (Homo sapiens, UniProt P21554) (assay: Cannabinoid Receptor-1 functional assay: inhibition of CP55940-induced [35S]GTPγS binding to membranes of CHO-K1 cells expressing human CB1). Details: 3 nM CP55940, [35S]GTPγS SPA, hCB1 membranes; read-out: IC50 value for antagonizing a CB1 receptor agonist.
T1 construct: expressed in transfected cells; membranes used
Type: biochemical
Text: Transfection and Cell Culture—The cDNA encoding the human CB1 (Cannabinoid Receptor-1) receptor (GenBank accession number NM_016083) was cloned from a human adipose tissue cDNA library and cloned into the eukaryotic expression vector pcDNA3.1 (Invitrogen).
Chinese Hamster Ovary cells (CHO-K1) stably expressing recombinant human CB1 were generated by transfecting the plasmid containing the coding sequence of the human CB1 receptor in CHO-K1 cells, using lipofectamin, according to the manufacturer instructions. Resistant clones were selected in the presence of 600 μg/ml G418 (Life technology). Stably transfected CHO-K1 cells were maintained in Ham's F-12 culture medium (Invitrogen), supplemented with 10% fetal calf serum (Invitrogen), 100 U/ml penicillin, 100 μg/ml streptomycin (Life Technology), and 600 μg/ml G418.
Functional activities of the above examples of compounds of the invention were assessed in vitro by measuring their ability to inhibit CP55940-induced [^35S]GTPγS binding to membranes prepared from CHO-K1 cells expressing the human CB1 receptor (described in Transfection and Cell Culture). CP55940 is a well known non-selective CB1 and CB2 receptor agonist (e.g Felder et al., 1995, Molecular Pharmacology, (48) 443-50). Membranes were prepared by a standard procedure. Briefly, cells were harvested using 10 mM EDTA and collected by centrifugation. Pelleted cells were homogenized in ice-cold 20 mM Hepes (pH 7.4), 10 mM EDTA and protease inhibitors (Complete protease inhibitor cocktail tablet, Roche) using an Ultra Turrax Homogenizer. The homogenate was centrifuged at 14 000 rpm for 45 min. at 4° C. The resultant pellet was resuspended in the same buffer but with only 0.1 mM EDTA and was again centrifuged at 14 000 rpm for 45 min. at 4° C. The resulting pellet (membranes) was resuspended in 20 mM Hepes (pH 7.4), 0.1 mM EDTA, 2 mM MgCl2 and protease inhibitors and protein concentration was determined by Micro BCA Protein Assay Reagent Kit (Pierce Biotechnology) according to the manufacturer instructions. The [^35S]GTPγS SPA (Scintillation Proximity Assay) binding assay was performed by incubating 5 μg/well hCB1-membranes with 1 nM [^35S]GTPγS (Perkin Elmer—NEG 030H) in the presence of 3 nM of CP55940 and various concentrations of the test compounds at room temperature for 1 hr in 96-well microtiter plates. 0.4 mg/well SPA beads (PVT-WGA; RPNQ0001 Amersham Pharmacia Biotech) were then added and the incubation continued for further 30 min. on an orbital shaker. The assay buffer contained 50 mM HEPES (pH 7.5), 50 mM NaCl, 2.5 mM MgCl2, 0.1% BSA, 1 μM GDP and 100 μg/ml Saponin. Microtiter plates were centrifuged at 1500 rpm for 5 min. and radioactivity was read immediately using a Topcounter (PerkinElmer Life Sciences). Data were analyzed and IC50 values determined by non-linear regression using the Prism software (GraphPad Software, San Diego).

T1 sequence (P21554 whole entry): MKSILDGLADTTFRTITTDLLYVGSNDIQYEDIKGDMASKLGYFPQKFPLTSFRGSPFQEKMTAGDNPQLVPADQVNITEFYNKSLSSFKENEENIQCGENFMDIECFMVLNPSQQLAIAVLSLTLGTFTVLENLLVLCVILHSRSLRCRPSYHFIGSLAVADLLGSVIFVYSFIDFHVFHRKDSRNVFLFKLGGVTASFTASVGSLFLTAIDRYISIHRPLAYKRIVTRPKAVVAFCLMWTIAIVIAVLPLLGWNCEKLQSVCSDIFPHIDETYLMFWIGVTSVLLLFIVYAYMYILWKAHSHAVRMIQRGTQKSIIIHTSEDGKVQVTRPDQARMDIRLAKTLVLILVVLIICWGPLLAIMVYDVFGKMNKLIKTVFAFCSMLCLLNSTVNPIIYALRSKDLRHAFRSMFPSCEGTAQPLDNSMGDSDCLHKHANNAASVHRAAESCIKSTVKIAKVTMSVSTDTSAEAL

IC50 [µM]	Compound
< 0.3	N#Cc1ccc(C2CCN(C(=O)c3nn(-c4ccccc4Cl)c(-c4ccc(Cl)cc4)c3CC(=O)O)CC2)cc1 [[1.45], {1-(2-Chloro-phenyl)-5-(4-chloro-phenyl)-3-[4-(4-cyano-phenyl)-piperidine-1-carbonyl]-1H-pyrazol-4-yl}-acetic acid]
0.3 to 3	O=C(O)Cc1c(C(=O)N2CCCC2)nn(-c2ccccc2Cl)c1-c1ccc(Cl)cc1 [[1.46], [1-(2-Chloro-phenyl)-5-(4-chloro-phenyl)-3-(pyrrolidine-1-carbonyl)-1H-pyrazol-4-yl]-acetic acid]
0.3 to 3	O=C(O)Cc1c(C(=O)N2CCCCC2)nn(-c2ccccc2Cl)c1-c1ccc(Cl)cc1 [[1.47], [1-(2-Chloro-phenyl)-5-(4-chloro-phenyl)-3-(piperidine-1-carbonyl)-1H-pyrazol-4-yl]-acetic acid]
3 to 10	O=C(O)Cc1c(C(=O)N2CCOCC2)nn(-c2ccccc2Cl)c1-c1ccc(Cl)cc1 [[1.48], [1-(2-Chloro-phenyl)-5-(4-chloro-phenyl)-3-(morpholine-4-carbonyl)-1H-pyrazol-4-yl]-acetic acid]
< 0.3	O=C(O)Cc1c(C(=O)N2CCC(OCc3ccccc3)CC2)nn(-c2ccccc2Cl)c1-c1ccc(Cl)cc1 [[1.49], [3-(4-Benzyloxy-piperidine-1-carbonyl)-1-(2-chloro-phenyl)-5-(4-chloro-phenyl)-1H-pyrazol-4-yl]-acetic acid]
< 0.3	O=C(O)Cc1c(C(=O)N2CCC(CO)(c3ccccc3)CC2)nn(-c2ccccc2Cl)c1-c1ccc(Cl)cc1 [[1.50], [1-(2-Chloro-phenyl)-5-(4-chloro-phenyl)-3-(4-hydroxymethyl-4-phenyl-piperidine-1-carbonyl)-1H-pyrazol-4-yl]-acetic acid]
< 0.3	N#Cc1ccccc1C1CCN(C(=O)c2nn(-c3ccccc3Cl)c(-c3ccc(Cl)cc3)c2CC(=O)O)CC1 [[1.51], {1-(2-Chloro-phenyl)-5-(4-chloro-phenyl)-3-[4-(2-cyano-phenyl)-piperidine-1-carbonyl]-1H-pyrazol-4-yl}-acetic acid]
< 0.3	O=C(O)Cc1c(C(=O)N2CCC(c3ccccc3Cl)CC2)nn(-c2ccccc2Cl)c1-c1ccc(Cl)cc1 [[1.54], {1-(2-Chloro-phenyl)-5-(4-chloro-phenyl)-3-[4-(2-chloro-phenyl)-piper-idine-1-carbonyl]-1H-pyrazol-4-yl}-acetic acid]
< 0.3	O=C(O)Cc1c(C(=O)N2CCC(c3cccc(F)c3)C2)nn(-c2ccccc2Cl)c1-c1ccc(Cl)cc1 (centres unmarked) [[1.55], {1-(2-Chloro-phenyl)-5-(4-chloro-phenyl)-3-[3-(3-fluoro-phenyl)-pyrrolidine-1-carbonyl]-1H-pyrazol-4-yl}-acetic acid]
0.3 to 3	CS(=O)(=O)c1cccc(C2CCN(C(=O)c3nn(-c4ccccc4Cl)c(-c4ccc(Cl)cc4)c3CC(=O)O)CC2)c1 [[1.57], {1-(2-Chloro-phenyl)-5-(4-chloro-phenyl)-3-[4-(3-methylsulfonyl-phenyl)-piperidine-1-carbonyl]-1H-pyrazol-4-yl}-acetic acid]
< 0.3	O=C(O)Cc1c(C(=O)N2CCC(Oc3ccccc3)CC2)nn(-c2ccccc2Cl)c1-c1ccc(Cl)cc1 [[1.58]]
< 0.3	O=C(O)Cc1c(C(=O)N2CCC(Oc3ccc(Cl)cc3)CC2)nn(-c2ccccc2Cl)c1-c1ccc(Cl)cc1 [[1.59], {1-(2-Chloro-phenyl)-5-(4-chloro-phenyl)-3-[4-(4-chlorophenoxy)-piperidine-1-carbonyl]-1H-pyrazol-4-yl}-acetic acid]
< 0.3	O=C(O)Cc1c(C(=O)N2CC(Oc3ccc(F)cc3)C2)nn(-c2ccccc2Cl)c1-c1ccc(Cl)cc1 [[1.60], {1-(2-Chloro-phenyl)-5-(4-chloro-phenyl)-3-[3-(4-fluorophenoxy)-azetidine-1-carbonyl]-1H-pyrazol-4-yl}-acetic acid]
< 0.3	O=C(O)Cc1c(C(=O)N2CCC(Oc3ccc(F)c(F)c3)CC2)nn(-c2ccccc2Cl)c1-c1ccc(Cl)cc1 [[1.61], {1-(2-Chloro-phenyl)-5-(4-chloro-phenyl)-3-[4-(3,4-difluorophenoxy)-piperidine-1-carbonyl]-1H-pyrazol-4-yl}-acetic acid]
< 0.3	O=C(O)Cc1c(C(=O)N2CCC(Oc3cccc(F)c3)CC2)nn(-c2ccccc2Cl)c1-c1ccc(Cl)cc1 [[1.62], {1-(2-Chloro-phenyl)-5-(4-chloro-phenyl)-3-[4-(3-fluorophenoxy)-piperidine-1-carbonyl]-1H-pyrazol-4-yl}-acetic acid]
< 0.3	O=C(O)Cc1c(C(=O)N2CCC(Oc3ncc(F)cn3)CC2)nn(-c2ccccc2Cl)c1-c1ccc(Cl)cc1 [[1.63], {1-(2-Chloro-phenyl)-5-(4-chloro-phenyl)-3-[4-(5-fluoropyrimidin-2-oxy)-piperidine-1-carbonyl]-1H-pyrazol-4-yl}-acetic acid]
< 0.3	O=C(O)Cc1c(C(=O)N2CCC(Oc3ccc(F)cc3)C2)nn(-c2ccccc2Cl)c1-c1ccc(Cl)cc1 (centres unmarked) [[1.64], {1-(2-Chloro-phenyl)-5-(4-chloro-phenyl)-3-[3-(4-fluorophenoxy)-pyrrolidine-1-carbonyl]-1H-pyrazol-4-yl}-acetic acid]
< 0.3	Cc1c(C(=O)N2CCC(C(=O)O)(c3ccccc3)CC2)nn(-c2ccccc2Cl)c1-c1ccc(Cl)cc1 [[2.1], 1-[5-(4-Chloro-phenyl)-1-(2-chloro-phenyl)-4-methyl-1H-pyrazole-3-carbonyl]-4-phenyl-piperidine-4-carboxylic acid]
< 0.3	O=C(c1nn(-c2ccccc2Cl)c(-c2ccc(Cl)cc2)c1Cc1nn[nH]n1)N1CCC(O)(c2ccc(F)cc2)CC1 [[3.2], [1-(2-Chloro-phenyl)-5-(4-chloro-phenyl)-4-(2H-tetrazol-5-ylmethyl)-1H-pyrazol-3-yl]-[4-(4-fluoro-phenyl)-4-hydroxy-piperidin-1-yl]-methanone]
< 0.3	O=C(c1nn(-c2ccccc2Cl)c(-c2ccc(Cl)cc2)c1Cc1nn[nH]n1)N1CCC(c2ccc(F)cc2)CC1 [[3.3], [1-(2-Chloro-phenyl)-5-(4-chloro-phenyl)-4-(2H-tetrazol-5-ylmethyl)-1H-pyrazol-3-yl]-[4-(4-fluoro-phenyl)-piperidin-1-yl]-methanone]
< 0.3	O=C(c1nn(-c2ccccc2Cl)c(-c2ccc(Cl)cc2)c1Cc1nn[nH]n1)N1CCC(c2ccccc2F)CC1 [[3.4], [1-(2-Chloro-phenyl)-5-(4-chloro-phenyl)-4-(2H-tetrazol-5-ylmethyl)-1H-pyrazol-3-yl]-[4-(2-fluoro-phenyl)-piperidin-1-yl]-methanone]
< 0.3	O=C(c1nn(-c2ccccc2Cl)c(-c2ccc(Cl)cc2)c1Cc1nn[nH]n1)N1CCC(Oc2ccccc2)CC1 [[3.5], [1-(2-Chloro-phenyl)-5-(4-chloro-phenyl)-4-(2H-tetrazol-5-ylmethyl)-1H-pyrazol-3-yl]-[4-phenoxy-piperidin-1-yl]-methanone]
< 0.3	O=C(c1nn(-c2ccccc2Cl)c(-c2ccc(Cl)cc2)c1Cc1nn[nH]n1)N1CCC(Oc2ccc(Cl)cc2)CC1 [[3.6], [1-(2-Chloro-phenyl)-5-(4-chloro-phenyl)-4-(2H-tetrazol-5-ylmethyl)-1H-pyrazol-3-yl]-[4-(4-chlorophenoxy)-piperidin-1-yl]-methanone]
< 0.3	O=C(c1nn(-c2ccccc2Cl)c(-c2ccc(Cl)cc2)c1Cc1nn[nH]n1)N1CC(Oc2ccc(F)cc2)C1 [[3.7], [1-(2-Chloro-phenyl)-5-(4-chloro-phenyl)-4-(2H-tetrazol-5-ylmethyl)-1H-pyrazol-3-yl]-[3-(4-fluorophenoxy)-azetidin-1-yl]-methanone]
< 0.3	O=C(c1nn(-c2ccccc2Cl)c(-c2ccc(Cl)cc2)c1Cc1nn[nH]n1)N1CCC(Oc2ccc(F)c(F)c2)CC1 [[3.8], [1-(2-Chloro-phenyl)-5-(4-chloro-phenyl)-4-(2H-tetrazol-5-ylmethyl)-1H-pyrazol-3-yl]-[4-(3,4-difluorophenoxy)-piperidin-1-yl]-methanone]
< 0.3	O=C(c1nn(-c2ccccc2Cl)c(-c2ccc(Cl)cc2)c1Cc1nn[nH]n1)N1CCC(Oc2cccc(F)c2)CC1 [[3.9], [1-(2-Chloro-phenyl)-5-(4-chloro-phenyl)-4-(2H-tetrazol-5-ylmethyl)-1H-pyrazol-3-yl]-[4-(3-fluorophenoxy)-piperidin-1-yl]-methanone]

Source: patent US8148404B2, “Modulators of CB1 receptors” (7TM Pharma A/S, priority 2006, dated 2012)
